The text below walks through data of patent US10851073B2, “Protein tyrosine phosphatase inhibitors and methods of use thereof” (Calico Life Sciences LLC, priority 2019, dated 2020).

SMILES strings stand for the structures. A value given as a limit tells only on which side of the number the result lay.

The target of assay [1] is T1, His tagged PTPN2 (TC45) protein (Homo sapiens, UniProt P17706).
T1 construct: made in house
T1 sequence (P17706 with tags, fused parts or gaps isoform P17706-2): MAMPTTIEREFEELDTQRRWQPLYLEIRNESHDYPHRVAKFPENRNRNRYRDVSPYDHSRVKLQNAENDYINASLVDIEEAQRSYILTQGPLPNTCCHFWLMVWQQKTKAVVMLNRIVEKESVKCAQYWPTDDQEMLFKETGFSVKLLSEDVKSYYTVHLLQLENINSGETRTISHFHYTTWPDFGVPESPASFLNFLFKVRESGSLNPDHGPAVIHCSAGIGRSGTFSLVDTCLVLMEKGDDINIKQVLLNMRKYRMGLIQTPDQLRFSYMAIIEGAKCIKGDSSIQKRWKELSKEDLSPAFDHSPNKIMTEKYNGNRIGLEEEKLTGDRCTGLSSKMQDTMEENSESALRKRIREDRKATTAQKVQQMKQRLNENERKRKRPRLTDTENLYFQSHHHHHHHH
Description: Mobility shift assay used to determine potency of PTPN2 inhibitors. The class given is biochemical. The conditions noted are these: enzyme 0.5 nM, substrate 2 μM; read-out: PTPN2 MSA IC50. An outline of the steps: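 Microfluidic mobility-shift read-out (488/530 nm) of dephosphorylation of an OG488-tagged phosphotyrosine insulin receptor peptide, 2 μM, over 10 min at room temperature, after 10 min compound preincubation with 0.5 nM enzyme. Buffer: 50 mM HEPES pH 7.5, EGTA, EDTA, Tween 20, DTT. IC50 derived from % inhibition over 12-point 1:3 series.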

Assay [2] concerns the target T2, His tagged full-length PTPN1 protein (Homo sapiens, UniProt P18031).
T2 construct: made in house
T2 sequence (P18031 with tags, fused parts or gaps): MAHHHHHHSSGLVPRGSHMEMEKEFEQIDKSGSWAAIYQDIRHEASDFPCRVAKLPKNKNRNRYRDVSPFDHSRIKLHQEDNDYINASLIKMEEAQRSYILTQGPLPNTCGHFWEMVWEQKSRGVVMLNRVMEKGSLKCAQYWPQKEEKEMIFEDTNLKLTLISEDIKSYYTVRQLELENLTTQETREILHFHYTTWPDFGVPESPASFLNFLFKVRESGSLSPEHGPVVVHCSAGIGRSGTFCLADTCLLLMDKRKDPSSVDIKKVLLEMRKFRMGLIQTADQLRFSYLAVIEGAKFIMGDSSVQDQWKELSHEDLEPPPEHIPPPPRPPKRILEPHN
Description: Mobility shift assay (MSA) used to determine potency of PTPN1 inhibitors. It counts as biochemical. The conditions noted are these: enzyme 0.5 nM, substrate 2 μM. Summed up:
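Full-length His-tagged human PTPN1 (0.5 nM) was preincubated 10 min at room temperature with compound (12-point, 1:3 dilution) in HEPES pH 7.5 buffer with EGTA, EDTA, Tween 20 and DTT. A 2 μM fluorescent phospho-insulin receptor peptide was then added for 10 min before quench. Mobility-shift % conversion gave % inhibition and IC50.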

In assay [3] the test system is B16F10 mouse melanoma cells. Description: B16F10 IFNγ-induced cellular growth inhibition assay. It counts as cell-based. The conditions noted are these: B16-F10, with 0.5 ng/mL IFNγ, read-out: B16F10 GI IC50. An outline of the steps:
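B16F10 cells grown in DMEM+10% FBS, with or without 0.5 ng/mL final mouse IFNγ, and dosed in triplicate at 100 μM to 0.001 μM final (0.1% DMSO). Confluence imaged every 6 h for 5 days; percent growth inhibition versus DMSO/with-IFNγ control taken once DMSO/no-IFNγ wells exceeded 95% confluence, giving IC50.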

As a reminder, the IC50 is the midpoint of a concentration-inhibition curve. Turning to `CC1(C)CC1CCCN1CCc2cc(O)c(N3CC(=O)NS3(=O)=O)c(F)c2C1` (stereo not drawn) [Compound 288, 5-{2-[3-(2,2-dimethylcyclopropyl)propyl]-8-fluoro-6-hydroxy-1,2,3,4-tetrahydroisoquinolin-7-yl}-1λ^6,2,5-thiadiazolidine-1,1,3-trione], the IC50 lay within 10 to 100 nM in assay [1], 1 to 10 nM in assay [2] and 1000 to 10000 nM in assay [3].
Take `CC(C)CCN(CCC(C)C)CC1Cc2cc(O)c(N3CC(=O)NS3(=O)=O)c(F)c2C1` (stereo not drawn) [Compound 269, 5-(2-{[bis(3-methylbutyl)amino]methyl}-4-fluoro-6-hydroxy-2,3-dihydro-1H-inden-5-yl)-1λ^6,2,5-thiadiazolidine-1,1,3-trione]: the IC50 in assay [1] lay within 1 to 10 nM; in assay [2] it was 1 to 10 nM; in assay [3], 10000 to 100000 nM.
As to `O=C1CN(c2c(O)cc3c(c2F)CC(OCC2CC(F)(F)C2)CC3)S(=O)(=O)N1` (stereo not drawn) [Compound 119, 5-{7-[(3,3-difluorocyclobutyl)methoxy]-1-fluoro-3-hydroxy-5,6,7,8-tetrahydronaphthalen-2-yl}-1λ^6,2,5-thiadiazolidine-1,1,3-trione], the values for the IC50 in assay [1], in assay [2] and in assay [3] were 1 to 10 nM, 1 to 10 nM and 1000 to 10000 nM, respectively.
For the compound `O=C1CN(c2c(O)cc3c(c2F)CC(NCCC(O)(C(F)(F)F)C(F)(F)F)CC3)S(=O)(=O)N1` (stereo not drawn) [Compound 130, 5-(1-fluoro-3-hydroxy-7-{[4,4,4-trifluoro-3-hydroxy-3-(trifluoromethyl)butyl]amino}-5,6,7,8-tetrahydronaphthalen-2-yl)-1λ^6,2,5-thiadiazolidine-1,1,3-trione], the IC50 lay in the range of 1 to 10 nM in assay [1], 1 to 10 nM in assay [2] and 1000 to 10000 nM in assay [3].
For `CC(C)(O)CCOC1CCc2cc(O)c(N3CC(=O)NS3(=O)=O)c(F)c2C1` (stereo not drawn) [Compound 197, 5-[1-fluoro-3-hydroxy-7-(3-hydroxy-3-methylbutoxy)-5,6,7,8-tetrahydronaphthalen-2-yl]-1λ^6,2,5-thiadiazolidine-1,1,3-trione], the figures for the IC50 in assay [1], in assay [2] and in assay [3] were 10 to 100 nM, 10 to 100 nM and 1000 to 10000 nM, respectively.
For the compound `O=C1CN(c2c(O)cc3c(c2F)CC(NCC(O)C2CC2)CC3)S(=O)(=O)N1` (stereo not drawn) [Compound 188, 5-{7-[(2-cyclopropyl-2-hydroxyethyl)amino]-1-fluoro-3-hydroxy-5,6,7,8-tetrahydronaphthalen-2-yl}-1λ^6,2,5-thiadiazolidine-1,1,3-trione], the IC50 in assay [1] is 10 to 100 nM; in assay [2], 10 to 100 nM; in assay [3] it was below 1000 nM.
Consider `O=C1CN(c2c(O)cc3c(c2F)C[C@@H]([C@H]2CCN(S(=O)(=O)C4CC4)C2)CC3)S(=O)(=O)N1` (single isomer, unassigned) [Compound 139, 5-{(7RS)-7-[(3SR)-1-(cyclopropanesulfonyl)pyrrolidin-3-yl]-1-fluoro-3-hydroxy-5,6,7,8-tetrahydronaphthalen-2-yl}-1λ^6,2,5-thiadiazolidine-1,1,3-trione], for which the IC50 lay in the range of 1 to 10 nM in assay [1], 10 to 100 nM in assay [2] and 10000 to 100000 nM in assay [3].
Consider `O=C1CN(c2c(O)cc3c(c2F)CC(NCC(F)(F)c2ccccc2)CC3)S(=O)(=O)N1` (stereo not drawn) [Compound 125, 5-{7-[(2,2-difluoro-2-phenylethyl)amino]-1-fluoro-3-hydroxy-5,6,7,8-tetrahydronaphthalen-2-yl}-1λ^6,2,5-thiadiazolidine-1,1,3-trione], for which the IC50 was 1 to 10 nM in assay [1], 10 to 100 nM in assay [2] and 10000 to 100000 nM in assay [3].
As for `CC(C)(C)CCNC1CCc2cc(O)c(N3CC(=O)NS3(=O)=O)c(F)c2C1` (stereo not drawn) [Compound 174, 5-{7-[(3,3-dimethylbutyl)amino]-1-fluoro-3-hydroxy-5,6,7,8-tetrahydronaphthalen-2-yl}-1λ^6,2,5-thiadiazolidine-1,1,3-trione], the IC50 is 1 to 10 nM in assay [1], 1 to 10 nM in assay [2] and below 1000 nM in assay [3].
On to `O=C1CN(c2c(O)cc3c(c2F)C[C@@H]([C@@H]2CCNC2)CC3)S(=O)(=O)N1` (single isomer, unassigned) [Compound 136, 5-{(7RS)-1-fluoro-3-hydroxy-7-[(3RS)-pyrrolidin-3-yl]-5,6,7,8-tetrahydronaphthalen-2-yl}-1λ^6,2,5-thiadiazolidine-1,1,3-trione], for which the IC50 is 10 to 100 nM in assay [1], 10 to 100 nM in assay [2] and above 100000 nM in assay [3].
As for `O=C1CN(c2c(O)cc3c(c2F)CC(NCCOC(F)F)CC3)S(=O)(=O)N1` (stereo not drawn) [Compound 157, 5-(7-{[2-(difluoromethoxy)ethyl]amino}-1-fluoro-3-hydroxy-5,6,7,8-tetrahydronaphthalen-2-yl)-1λ^6,2,5-thiadiazolidine-1,1,3-trione], the IC50 fell in the range of 1 to 10 nM in assay [1], 10 to 100 nM in assay [2] and 1000 to 10000 nM in assay [3].
The corresponding values for `CCCCNC1CCc2cc(O)c(N3CC(=O)NS3(=O)=O)c(F)c2C1` (stereo not drawn) [Compound 175, 5-[7-(butylamino)-1-fluoro-3-hydroxy-5,6,7,8-tetrahydronaphthalen-2-yl]-1λ^6,2,5-thiadiazolidine-1,1,3-trione] are 1 to 10 nM, 10 to 100 nM and below 1000 nM.
Regarding `O=C1CN(c2c(O)cc3c(c2F)CC(NCCC2CCCCC2)CC3)S(=O)(=O)N1` (stereo not drawn) [Compound 173, 5-{7-[(2-cyclohexylethyl)amino]-1-fluoro-3-hydroxy-5,6,7,8-tetrahydronaphthalen-2-yl}-1λ^6,2,5-thiadiazolidine-1,1,3-trione], the 50% inhibitory concentration (IC50) in assay [1] is 1 to 10 nM; in assay [2], 1 to 10 nM; in assay [3], below 1000 nM.
`O=C1CN(c2c(O)cc3c(c2F)CC(OCC2CC2)CC3)S(=O)(=O)N1` (stereo not drawn) [Compound 107, 5-[7-(cyclopropylmethoxy)-1-fluoro-3-hydroxy-5,6,7,8-tetrahydronaphthalen-2-yl]-1λ^6,2,5-thiadiazolidine-1,1,3-trione]: the figures for the IC50 in assay [1], in assay [2] and in assay [3] were 10 to 100 nM, 10 to 100 nM and 10000 to 100000 nM, respectively.
For `CC(C)CCN[C@H]1CCc2cc(O)c(N3CC(=O)NS3(=O)=O)c(F)c2C1` (single isomer, unassigned) [Compound 117], the IC50 in assay [1] lay within 10 to 100 nM; in assay [2] it was 10 to 100 nM; in assay [3] it was 1000 to 10000 nM.
For the compound `O=C1CN(c2c(O)cc3c(c2F)CC(NCCc2ccccn2)CC3)S(=O)(=O)N1` (stereo not drawn) [Compound 135, 5-(1-fluoro-3-hydroxy-7-{[2-(pyridin-2-yl)ethyl]amino}-5,6,7,8-tetrahydronaphthalen-2-yl)-1λ^6,2,5-thiadiazolidine-1,1,3-trione], the IC50 in assay [1] lay in the range of 10 to 100 nM; in assay [2] it was 10 to 100 nM; in assay [3], 1000 to 10000 nM.
On to `C[Si](C)(O)CCCNC1CCc2cc(O)c(N3CC(=O)NS3(=O)=O)c(F)c2C1` (stereo not drawn) [Compound 190, 5-[1-fluoro-3-hydroxy-7-({3-[hydroxy(dimethyl)silyl]propyl}amino)-5,6,7,8-tetrahydronaphthalen-2-yl]-1λ^6,2,5-thiadiazolidine-1,1,3-trione], for which the results for the IC50 in assay [1], in assay [2] and in assay [3] were 1 to 10 nM, 10 to 100 nM and 1000 to 10000 nM, respectively.
For `O=C1CN(c2c(O)cc3c(c2F)CC(NCC(O)CC(F)(F)F)CC3)S(=O)(=O)N1` (stereo not drawn) [Compound 156, 5-{1-fluoro-3-hydroxy-7-[(4,4,4-trifluoro-2-hydroxybutyl)amino]-5,6,7,8-tetrahydronaphthalen-2-yl}-1λ^6,2,5-thiadiazolidine-1,1,3-trione], in that order: 1 to 10 nM, 1 to 10 nM and below 1000 nM.
